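A five-concentration, 48-hour dose response in 96-well plates underlies each endpoint, interpolated linearly between surrounding concentrations. Here, GI50 denotes the concentration required for 50% inhibition of growth.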 Active and inactive are the calls of the source. Rule as the data show it: active = GI50 up to about 1.1 µM and inactive = higher.

Among the test systems are A549; ACHN; HCT-15; HL-60; HOP-62; MOLT-4; NCI-H226; NCI-H460; OVCAR-3; RXF 393; SF-268; SF-539; SK-MEL-28; SN12C; SNB-19; SNB-75; UO-31; NCI/ADR-RES; PC-3.
Holding throughout (test): NCI anticancer screen, dose series, 48 h

Regarding `CCC1CN2CCc3cc(OC)c(OC)cc3C2CC1CC1c2cc(OC)c(OC)cc2CCN1C(=O)C1CCCN1` (configuration not stated), the GI50 in the experiment with A549 is 26.4 µM (inactive); in the experiment with ACHN, 28.7 µM (inactive); in the experiment with HCT-15 it was 31.7 µM; with HL-60 it was 19.3 µM (inactive); in the experiment on HOP-62, 32.5 µM (inactive); in the experiment on MOLT-4 it was 32.4 µM (inactive). Also, the GI50 is 31.3 µM (inactive) with NCI-H226; 25.9 µM (inactive) in the experiment on NCI-H460; 27.4 µM (inactive) in the experiment with OVCAR-3; 33.5 µM (inactive) in the experiment with RXF 393; 32.8 µM (inactive) in the experiment on SF-268; 20.3 µM (inactive) in the experiment on SF-539. The GI50 with SK-MEL-28 was 18.8 µM (inactive); in the experiment with SN12C, 37.5 µM (inactive); in the experiment on SNB-19, 14.9 µM (inactive); in the experiment on SNB-75 it was 26 µM (inactive); with UO-31 it was 21.5 µM (inactive).

For the compound `CC(N)C(=O)OCN1C(=O)C2C3C=CC(C2C1=O)C1C2C(=O)N(COC(=O)C(C)N)C(=O)C2C31` (configuration not stated), the GI50 in the experiment with A549 was 32.9 µM (inactive); in the experiment with ACHN it was 27.7 µM (inactive); with HCT-15, 19.9 µM; in the experiment on HL-60, 29.8 µM (inactive); in the experiment on HOP-62, > 100 µM (inactive); in the experiment with MOLT-4, 21.5 µM (inactive). In addition, the GI50 with NCI-H226 is 39.8 µM (inactive); in the experiment on NCI-H460, 17.6 µM (inactive); in the experiment with OVCAR-3 it was 33.6 µM (inactive); in the experiment on RXF 393, 22.2 µM (inactive); with SF-268, 21.3 µM (inactive); with SF-539 it was 22.9 µM (inactive). Moreover, the GI50 in the experiment on SK-MEL-28 was 21.9 µM (inactive); in the experiment on SN12C, 25.6 µM (inactive); in the experiment with SNB-19, 52.2 µM (inactive); in the experiment with SNB-75 it was 25.6 µM (inactive); in the experiment with UO-31, 56.4 µM (inactive).

In the case of `O=c1c2cc([N+](=O)[O-])ccc2[nH]n1Cc1ccccc1Cl`, the GI50 in the experiment on A549 is 42.1 µM (inactive); with ACHN, 46.1 µM (inactive); in the experiment on HCT-15 it was over 100 µM; in the experiment with HL-60 it was 30.8 µM (inactive); in the experiment with HOP-62, 38.1 µM (inactive); in the experiment with MOLT-4 it was 74 µM (inactive). For the same compound, the GI50 with NCI-H226 was 74.1 µM (inactive); in the experiment with NCI-H460, 31 µM (inactive); with NCI/ADR-RES it was 40.6 µM (inactive); in the experiment with OVCAR-3 it was > 100 µM (inactive); in the experiment on PC-3, 93.8 µM (inactive); with RXF 393, 35.2 µM (inactive). The GI50 in the experiment on SF-268 is > 100 µM (inactive); with SF-539, 98.4 µM (inactive); with SK-MEL-28, 44.6 µM (inactive); in the experiment with SN12C it was 86.1 µM (inactive); in the experiment on SNB-19, > 100 µM (inactive); in the experiment with SNB-75 it was > 100 µM (inactive). In addition, the GI50 in the experiment on UO-31 is 39 µM (inactive).

As for `CCOC(OCC)C(CC)[Se]c1ccccc1` (configuration not stated), the GI50 with A549 is > 100 µM (inactive); with ACHN, > 100 µM (inactive); in the experiment with HCT-15, 15.5 µM; in the experiment with HL-60 it was 2.42 µM (inactive); in the experiment on HOP-62, > 100 µM (inactive); with MOLT-4, 37.2 µM (inactive). Further, the GI50 with NCI-H226 was 27.3 µM (inactive); in the experiment with NCI-H460, 45.7 µM (inactive); with OVCAR-3 it was > 100 µM (inactive); in the experiment with RXF 393, 55.2 µM (inactive); in the experiment on SF-268, 72.6 µM (inactive); in the experiment with SF-539, > 100 µM (inactive). Besides, the GI50 in the experiment on SK-MEL-28 was > 100 µM (inactive); in the experiment on SN12C, 41 µM (inactive); in the experiment on SNB-19 it was > 100 µM (inactive); in the experiment on SNB-75, 35.3 µM (inactive); in the experiment with UO-31, > 100 µM (inactive).

In the case of `COc1ccc2oc3cccc(NCCN(C)C)c3c(=O)c2c1`, the GI50 with A549 was 14.2 µM (inactive); in the experiment with ACHN, 10.5 µM (inactive); in the experiment with HCT-15, 13.7 µM; in the experiment with HL-60, 9.68 µM (inactive); with HOP-62, 15.2 µM (inactive); in the experiment on MOLT-4, 4.01 µM (inactive). Also, the GI50 in the experiment on NCI-H226 is 16.2 µM (inactive); in the experiment with NCI-H460, 8.83 µM (inactive); in the experiment with OVCAR-3, 14.7 µM (inactive); with RXF 393, 13.2 µM (inactive); in the experiment on SF-268, 13.3 µM (inactive); in the experiment on SF-539, 14.3 µM (inactive). The GI50 in the experiment on SK-MEL-28 was 18.2 µM (inactive); in the experiment with SN12C, 11 µM (inactive); in the experiment with SNB-19 it was 14.3 µM (inactive); in the experiment with SNB-75, 15.3 µM (inactive); in the experiment with UO-31, 8.3 µM (inactive).

Take `COC(=O)C(C(=O)C(=O)Nc1ccc(Br)cc1)c1nc2ccc(Cl)cc2nc1O` (configuration not stated): the GI50 with A549 is > 100 µM (inactive); with ACHN, > 91.8 µM (inactive); in the experiment on HCT-15 it was over 41.2 µM; in the experiment with HL-60, > 83.2 µM (inactive); with HOP-62 it was > 100 µM (inactive); in the experiment with MOLT-4 it was 80.7 µM (inactive). The GI50 in the experiment on NCI-H226 is 61 µM (inactive); in the experiment with NCI-H460 it was > 57.1 µM (inactive); with OVCAR-3, > 100 µM (inactive); in the experiment with RXF 393 it was > 100 µM (inactive); in the experiment with SF-268, > 100 µM (inactive); in the experiment on SF-539, > 100 µM (inactive). For the same compound, the GI50 in the experiment with SK-MEL-28 was > 100 µM (inactive); with SN12C it was > 100 µM (inactive); in the experiment with SNB-19, > 100 µM (inactive); in the experiment on SNB-75, 81.7 µM (inactive); in the experiment with UO-31 it was > 82.4 µM (inactive).

With `CC(C)(C)C1=CC(=NNC(=S)NCc2ccccc2)C=C(C(C)(C)C)C1=O`, the GI50 was 42.7 µM (inactive) in the experiment on A549; 67.1 µM (inactive) in the experiment on ACHN; over 100 µM in the experiment with HCT-15; > 100 µM (inactive) with HL-60; > 100 µM (inactive) in the experiment on HOP-62; 66.1 µM (inactive) in the experiment on MOLT-4. Further, the GI50 with NCI-H226 is 78.5 µM (inactive); in the experiment on NCI-H460 it was 47.6 µM (inactive); in the experiment with OVCAR-3 it was > 100 µM (inactive); in the experiment on RXF 393 it was 78.9 µM (inactive); with SF-268, 87.3 µM (inactive); in the experiment with SF-539, > 100 µM (inactive). Also, the GI50 in the experiment with SK-MEL-28 is > 100 µM (inactive); in the experiment with SN12C, 92.5 µM (inactive); in the experiment on SNB-19 it was 71 µM (inactive); with SNB-75, 27.9 µM (inactive); with UO-31 it was 52 µM (inactive).

As for `O=C(O)Cc1ccc(-n2nnc3c(=O)[nH][nH]c(=O)c32)cc1`, the GI50 in the experiment with A549 was > 100 µM (inactive); in the experiment on ACHN, > 100 µM (inactive); in the experiment on HCT-15, over 100 µM; in the experiment on HL-60, > 100 µM (inactive); with HOP-62, > 100 µM (inactive); with MOLT-4, > 100 µM (inactive). Further, the GI50 in the experiment on NCI-H460, with NCI/ADR-RES, in the experiment on OVCAR-3, with PC-3, with SK-MEL-28 and in the experiment on SN12C was > 100 µM (inactive) in each case. Moreover, the GI50 in the experiment with SNB-19 and in the experiment with UO-31 was > 100 µM (inactive) each time.

For the compound `COc1cc2c(c(OC)c1OC)-c1ccc(SC)c(=O)cc1[C@@H](NC(=O)c1ccc(Cl)cc1)CC2`, the GI50 in the experiment with A549 was < 0.01 µM (active); in the experiment with ACHN, < 0.01 µM (active); with HCT-15, under 0.01 µM; in the experiment on HL-60, < 0.01 µM (active); in the experiment with HOP-62 it was < 0.01 µM (active); in the experiment on MOLT-4, < 0.01 µM (active). Further, the GI50 in the experiment on NCI-H226, in the experiment on NCI-H460, in the experiment on OVCAR-3, in the experiment on RXF 393, in the experiment on SF-268 and in the experiment on SF-539 was < 0.01 µM (active) in each case. Moreover, the GI50 with SK-MEL-28 is 13.9 µM (inactive); in the experiment on SN12C, < 0.01 µM (active); with SNB-19, < 0.01 µM (active); with SNB-75 it was 2.16 µM (inactive); with UO-31, 0.0196 µM (active).

On to `Cc1c(/C=N/NC(=S)Nc2ccc([N+](=O)[O-])cc2)c(=O)n(-c2ccccc2)n1C`, for which the GI50 in the experiment with ACHN was 11.5 µM (inactive); in the experiment on HCT-15, 3.08 µM; in the experiment on HL-60, 35.2 µM (inactive); in the experiment with HOP-62, 11.6 µM (inactive); in the experiment on MOLT-4, 9.48 µM (inactive); in the experiment on NCI-H226, 10.8 µM (inactive). Moreover, the GI50 was 9.66 µM (inactive) with NCI/ADR-RES; 19.1 µM (inactive) in the experiment with PC-3; 12.4 µM (inactive) with RXF 393; 13.5 µM (inactive) in the experiment on SF-268; 16.4 µM (inactive) in the experiment with SF-539; > 100 µM (inactive) with SK-MEL-28. The GI50 in the experiment on SNB-19 was 16 µM (inactive); in the experiment with SNB-75 it was 13.3 µM (inactive); in the experiment on UO-31, 11.4 µM (inactive).

Turning to `COC(=O)C(=Cc1cc(OC)ccc1OC)C(=O)OC`, the GI50 in the experiment on A549 was 31 µM (inactive); in the experiment on ACHN it was 17.3 µM (inactive); in the experiment with HCT-15, 25.2 µM; in the experiment on HL-60, 21.8 µM (inactive); in the experiment on HOP-62 it was 27.5 µM (inactive); in the experiment with MOLT-4, 27.4 µM (inactive). Moreover, the GI50 in the experiment on NCI-H226 is 53.6 µM (inactive); in the experiment on NCI-H460, 30.8 µM (inactive); in the experiment on OVCAR-3 it was 21.2 µM (inactive); in the experiment on RXF 393 it was 16 µM (inactive); in the experiment on SF-268, 34.2 µM (inactive); in the experiment on SF-539, 24.7 µM (inactive). The GI50 was 23.6 µM (inactive) with SK-MEL-28; 24.9 µM (inactive) in the experiment on SN12C; 44 µM (inactive) in the experiment with SNB-19; 19.9 µM (inactive) in the experiment on SNB-75; 23 µM (inactive) in the experiment on UO-31.

Take `Nc1nc(O)c2nc(CNc3ccc(C(=O)NC(CCC(=O)O)C(=O)O)cc3)cnc2n1` (configuration not stated): the GI50 was > 100 µM (inactive) in the experiment on A549; > 100 µM (inactive) with ACHN; over 100 µM in the experiment on HCT-15; > 100 µM (inactive) in the experiment with HOP-62; > 100 µM (inactive) in the experiment on MOLT-4; > 100 µM (inactive) with NCI-H226. The GI50 with NCI-H460, in the experiment with NCI/ADR-RES, with OVCAR-3, with PC-3, with RXF 393 and in the experiment with SF-268 was > 100 µM (inactive) in each case. Further, the GI50 with SF-539 is > 100 µM (inactive); in the experiment on SK-MEL-28 it was > 100 µM (inactive); in the experiment on SN12C it was > 100 µM (inactive); with SNB-19, > 100 µM (inactive); in the experiment on SNB-75, 0.9 µM (active); in the experiment on UO-31, > 100 µM (inactive).

The values above are taken from ChEMBL document CHEMBL1201862, “PubChem BioAssay data set” (2004).
